The test system of test [1] is bladder carcinoma RT4 cell line. Nature of the test: TNF-α-induced cytotoxicity assay (CellTiter-Glo viability). Format: cell-based. The settings on record: Homo sapiens, RT-4, 72 h. In outline: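 RT4 bladder carcinoma cells, 1000 per well, stimulated with 1.25 ng/mL TNFα together with compound for 72 h at 37° C., 5% CO2. Viability read by CellTiter-Glo luminescence, proportional to cellular ATP, as a measure of HOIP-dependent cytotoxicity.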
On the technique in general: In ATP-based viability assays light output follows the ATP content of the culture.

Another test relates to NF-κB signaling pathway. In words: Cell-based dual luciferase NF-κB reporter assay (HEK293 cells, TNF stimulated). The conditions noted are these: Homo sapiens, HEK293. Here is the method: Dual-luciferase reporter assay was designed to find inhibitors of HOIP affecting NF-κB signaling pathway. The assay was performed in HEK293 cells which were transfected with plasmids coding for Firefly and NanoLuc luciferases. The NanoLuc luciferase plasmid contains NF-κB response element which determines its expression.
The assay was run following standard dual-luciferase protocols. The assay consists of a few steps: • compounds were dispensed at a concentration range: 100-0.005 μM with a final DMSO concentration of 1% of final volume (25 μL); • cells were stimulated after 30 min with 2.5 ng/mL TNF; and • after 6 h Firefly and NanoLuc luciferase activities are determined according to the procedure described by the manufacturer of Nano-Glo Dual-Luciferase Reporter Assay System.
On the technique in general: In a reporter assay the amount or activity of a reporter protein is the signal.

For test [2], the target named is T1, human E3 ubiquitin-protein ligase RNF31 (HOIP) (Homo sapiens, UniProt Q96EP0).
T1 sequence (Q96EP0 695-1072 limits assumed): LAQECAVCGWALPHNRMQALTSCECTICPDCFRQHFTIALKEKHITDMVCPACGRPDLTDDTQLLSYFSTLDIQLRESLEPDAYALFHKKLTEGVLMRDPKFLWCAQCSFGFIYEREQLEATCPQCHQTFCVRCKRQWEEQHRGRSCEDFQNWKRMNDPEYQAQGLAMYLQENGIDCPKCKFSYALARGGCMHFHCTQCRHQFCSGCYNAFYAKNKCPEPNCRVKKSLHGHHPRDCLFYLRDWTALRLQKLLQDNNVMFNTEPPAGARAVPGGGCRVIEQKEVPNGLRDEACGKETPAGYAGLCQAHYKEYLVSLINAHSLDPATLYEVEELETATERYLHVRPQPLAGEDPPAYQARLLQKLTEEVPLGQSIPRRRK
Nature of the test: Cell-free HTRF-based HOIP inhibition assay. The class given is biochemical. A digest of the protocol: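 HTRF read (ex 337 nm; em 665 and 620 nm) after a 2.5 h, 25° C. ubiquitination step started by adding E2 plus substrates. Before that, E. coli-expressed human HOIP fragment and E1 were incubated 1 h at 25° C. with compound at 100-0.005 μM, 1% DMSO final.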
A general note: Time-resolved FRET reads energy transfer from a long-lived donor to a nearby acceptor.

Experimental findings from patent US20260250250A1, “3-(SULPHONYL OR SULFONIMIDOYL)PROP-2-EN-1-YL]-2-OXO-1,2-DIHYDROPYRIDINE-3-CARBOXAMIDE DERIVATIVES” (Flinder Therapeutics B.V., priority 2022, published 2026) are described below.

For orientation: IC50 means the point on the concentration scale where inhibition reaches its midpoint. Lower therefore signals greater potency in that assay.

In the case of `COc1ccc(S(=O)(=O)/C=C/CNC(=O)c2cc3c([nH]c2=O)CCN(C(=O)OC(C)(C)C)C3)cc1F` [Example 26, tert-butyl 3-{[(2E)-3-(3-fluoro-4-methoxybenzenesulfonyl)prop-2-en-1-yl]carbamoyl}-2-oxo-1,2,5,6,7,8-hexahydro-1,6-naphthyridine-6-carboxylate], the IC50 is at most 10000 nM in test [1], at most 1000 nM in the test on NF-κB signaling pathway and at most 100 nM in test [2].
In the same order, the values of `CC(C)(C)OC(=O)N1CCc2[nH]c(=O)c(C(=O)NC/C=C/S(=O)(=O)c3ccc(Cl)cc3)cc2C1` [Example 27, tert-butyl 3-{[(2E)-3-(4-chlorobenzenesulfonyl)prop-2-en-1-yl]carbamoyl}-2-oxo-1,2,5,6,7,8-hexahydro-1,6-naphthyridine-6-carboxylate] are at most 1000 nM, at most 1000 nM and at most 100 nM.
In the same order, the values of `O=C(NC/C=C/S(=O)(=O)c1ccc(Cl)cc1)c1cc2ccccc2[nH]c1=O` [Example 28, N-[(2E)-3-(4-chlorobenzenesulfonyl)prop-2-en-1-yl]-2-oxo-1,2-dihydroquinoline-3-carboxamide] are at most 1000 nM, at most 1000 nM and at most 100 nM.
Take `O=C(NC/C=C/S(=O)(=O)c1ccc(Cl)cc1)c1cc2c([nH]c1=O)CCN(Cc1ccccc1)C2` [Example 29, 6-benzyl-N-[(2E)-3-(4-chlorobenzenesulfonyl)prop-2-en-1-yl]-2-oxo-1,2,5,6,7,8-hexahydro-1,6-naphthyridine-3-carboxamide]: the values for the IC50 (in test [1]; in the test with NF-κB signaling pathway; in test [2]) were at most 1000 nM, at most 1000 nM and at most 100 nM, respectively.
For the compound `COc1ccc(S(=N)(=O)/C=C/CNC(=O)c2cc3c([nH]c2=O)CCCC3)cc1F` (stereo not drawn) [Example 30, N-[(2E)-3-[(3-fluoro-4-methoxyphenyl)(imino)oxo-λ^6-sulfanyl]prop-2-en-1-yl]-2-oxo-1,2,5,6,7,8-hexahydroquinoline-3-carboxamide], the 50% inhibitory concentration (IC50) in test [1] is at most 1000 nM; in the test with NF-κB signaling pathway, at most 1000 nM; in test [2], at most 100 nM.
As to `O=C(NC/C=C/S(=O)(=O)c1ccc(F)cc1F)c1cc2c([nH]c1=O)CCCC2` [Example 31, N-[(2E)-3-(2,4-difluorobenzenesulfonyl)prop-2-en-1-yl]-2-oxo-1,2,5,6,7,8-hexahydroquinoline-3-carboxamide], the 50% inhibitory concentration (IC50) was at most 1000 nM in test [1], at most 1000 nM in the test with NF-κB signaling pathway and at most 100 nM in test [2].
As for `O=C(NC/C=C/S(=O)(=O)c1ccc(Cl)cc1Cl)c1cc2c([nH]c1=O)CCCC2` [Example 32, N-[(2E)-3-(2,4-dichlorobenzenesulfonyl)prop-2-en-1-yl]-2-oxo-1,2,5,6,7,8-hexahydroquinoline-3-carboxamide], the IC50 was at most 1000 nM in test [1], at most 1000 nM in the test with NF-κB signaling pathway and at most 100 nM in test [2].
Consider `O=C(NC/C=C/S(=O)(=O)c1ccc(F)cc1Cl)c1cc2c([nH]c1=O)CCCC2` [Example 33, N-[(2E)-3-(2-chloro-4-fluorobenzenesulfonyl)prop-2-en-1-yl]-2-oxo-1,2,5,6,7,8-hexahydroquinoline-3-carboxamide], for which the IC50 in test [1] is at most 1000 nM; in the test with NF-κB signaling pathway it was at most 1000 nM; in test [2], at most 100 nM.
Consider `O=C(NC/C=C/S(=O)(=O)c1ccc(F)cc1F)c1cc2c([nH]c1=O)CCCCC2` [Example 34, N-[(2E)-3-(2,4-difluorobenzenesulfonyl)prop-2-en-1-yl]-2-oxo-1H,2H,5H,6H,7H,8H,9H-cyclohepta[b]pyridine-3-carboxamide], for which the IC50 (in test [1]; in the test on NF-κB signaling pathway; in test [2]) was at most 1000 nM throughout.
Consider `O=C(NC/C=C/S(=O)(=O)c1ccc(F)cc1)c1cc2c([nH]c1=O)CCCCC2` [Example 35, N-[(2E)-3-(4-fluorobenzenesulfonyl)prop-2-en-1-yl]-2-oxo-1H,2H,5H,6H,7H,8H,9H-cyclohepta[b]pyridine-3-carboxamide], for which the results for the IC50 (in test [1]; with NF-κB signaling pathway; in test [2]) were at most 10000 nM, at most 1000 nM and at most 1000 nM, respectively.
Take `O=C(NC/C=C/S(=O)(=O)c1ccc(Cl)cc1)c1cc2c([nH]c1=O)CCCCC2` [Example 36, N-[(2E)-3-(4-chlorobenzenesulfonyl)prop-2-en-1-yl]-2-oxo-1H,2H,5H,6H,7H,8H,9H-cyclohepta[b]pyridine-3-carboxamide]: the values for the IC50 (in test [1]; with NF-κB signaling pathway; in test [2]) were at most 10000 nM, at most 100000 nM and at most 1000 nM, respectively.
On to `O=C(NC/C=C/S(=O)(=O)c1ccccc1)c1cc2c([nH]c1=O)CCCCC2` [Example 38, N-[(2E)-3-(benzenesulfonyl)prop-2-en-1-yl]-2-oxo-1H,2H,5H,6H,7H,8H,9H-cyclohepta[b]pyridine-3-carboxamide], for which the IC50 (in test [1]; in the test on NF-κB signaling pathway; in test [2]) was at most 1000 nM each time.
Turning to `O=C(NC/C=C/S(=O)(=O)c1cccc(F)c1)c1cc2c([nH]c1=O)CCCC2` [Example 39, N-[(2E)-3-(3-fluorobenzenesulfonyl)prop-2-en-1-yl]-2-oxo-1,2,5,6,7,8-hexahydroquinoline-3-carboxamide], the IC50 in test [1] is at most 1000 nM; in the test with NF-κB signaling pathway, at most 1000 nM; in test [2] it was at most 100 nM.
On to `COc1ccc(S(=O)(=O)/C=C/CNC(=O)c2cc3c([nH]c2=O)CCCC3)cc1` [Example 40, N-[(2E)-3-(4-methoxybenzenesulfonyl)prop-2-en-1-yl]-2-oxo-1,2,5,6,7,8-hexahydroquinoline-3-carboxamide], for which the IC50 (in test [1]; with NF-κB signaling pathway; in test [2]) was at most 1000 nM throughout.
As for `O=C(NC/C=C/S(=O)(=O)c1ccccc1Cl)c1cc2c([nH]c1=O)CCCC2` [Example 41, N-[(2E)-3-(2-chlorobenzenesulfonyl)prop-2-en-1-yl]-2-oxo-1,2,5,6,7,8-hexahydroquinoline-3-carboxamide], the results for the IC50 (in test [1]; in the test with NF-κB signaling pathway; in test [2]) were at most 1000 nM, at most 1000 nM and at most 100 nM, respectively.
For the compound `O=C(NC/C=C/S(=O)(=O)c1ccc(F)cc1F)c1cc2c([nH]c1=O)CCC2` [Example 42, N-[(2E)-3-(2,4-difluorobenzenesulfonyl)prop-2-en-1-yl]-2-oxo-1H,2H,5H,6H,7H-cyclopenta[b]pyridine-3-carboxamide], the half-maximal inhibitory concentration (IC50) in test [1] was at most 1000 nM; with NF-κB signaling pathway, at most 10000 nM; in test [2], at most 1000 nM.
As for `O=C(NC/C=C/S(=O)(=O)c1ccccc1)c1cc2c([nH]c1=O)CCC2` [Example 43, N-[(2E)-3-(benzenesulfonyl)prop-2-en-1-yl]-2-oxo-1H,2H,5H,6H,7H-cyclopenta[b]pyridine-3-carboxamide], the 50% inhibitory concentration (IC50) in test [1] was at most 10000 nM; in the test with NF-κB signaling pathway, at most 10000 nM; in test [2], at most 100 nM.
In the case of `O=C(NC/C=C/S(=O)(=O)c1cccs1)c1cc2c([nH]c1=O)CCCC2` [Example 44, 2-oxo-N-[(2E)-3-(thiophene-2-sulfonyl)prop-2-en-1-yl]-1,2,5,6,7,8-hexahydroquinoline-3-carboxamide], the IC50 (in test [1]; in the test with NF-κB signaling pathway; in test [2]) was at most 1000 nM throughout.
On to `COc1ccc(S(=O)(=O)/C=C/CNC(=O)c2cc3c([nH]c2=O)CCCC3)cc1OC` [Example 45, N-[(2E)-3-(3,4-dimethoxybenzenesulfonyl)prop-2-en-1-yl]-2-oxo-1,2,5,6,7,8-hexahydroquinoline-3-carboxamide], for which the IC50 was at most 10000 nM in test [1], at most 1000 nM with NF-κB signaling pathway and at most 1000 nM in test [2].
As for `CC(C)C1CCc2[nH]c(=O)c(C(=O)NC/C=C/S(=O)(=O)c3ccccc3)cc2C1` (stereo not drawn) [Example 46, N-[(2E)-3-(benzenesulfonyl)prop-2-en-1-yl]-2-oxo-6-(propan-2-yl)-1,2,5,6,7,8-hexahydroquinoline-3-carboxamide], the IC50 (in test [1]; in the test with NF-κB signaling pathway; in test [2]) was at most 1000 nM in each case.
On to `O=C(NC/C=C/S(=O)(=O)c1ccccc1)c1cc2cccnc2[nH]c1=O` [Example 47, N-[(2E)-3-(benzenesulfonyl)prop-2-en-1-yl]-2-oxo-1,2-dihydro-1,8-naphthyridine-3-carboxamide], for which the values for the IC50 (in test [1]; in the test with NF-κB signaling pathway; in test [2]) were at most 10000 nM, at most 10000 nM and at most 1000 nM, respectively.
With `CC1(C)CCc2[nH]c(=O)c(C(=O)NC/C=C/S(=O)(=O)c3ccccc3)cc2C1` [Example 48, N-[(2E)-3-(benzenesulfonyl)prop-2-en-1-yl]-6,6-dimethyl-2-oxo-1,2,5,6,7,8-hexahydroquinoline-3-carboxamide], the concentration for half-maximal inhibition (IC50) (in test [1]; in the test with NF-κB signaling pathway; in test [2]) was at most 1000 nM throughout.
